The values below come from ChEMBL document CHEMBL2375328, “Synthetic oligoureas of metaphenylenediamine mimic host defence peptides in their antimicrobial behaviour” (Bioorg Med Chem Lett, 2013).

Each structure is given as a SMILES string. ≈ marks a conversion by molar mass, not a printed value. Calls of active or inactive are those of the source. No cut-off for these calls is given here.

The nature of data set [1]: Induction of dimyristoyl phosphatidylglycerol membrane lysis assessed as calcein leakage by spectrofluorometric analysis. Type of data set: physicochemical.
Data set [2] can be described thus: Induction of dimyristoyl phosphatidylethanolamine membrane lysis assessed as calcein leakage at 250 to 500 uM by spectrofluorometric analysis. Type of data set: physicochemical.
Data set [3] in a line: Induction of dimyristoyl phosphatidylethanolamine membrane lysis assessed as calcein leakage at 1 mM by spectrofluorometric analysis. Particulars: 1000 µM. Format: physicochemical.
A short description of data set [4]: Induction of dimyristoyl phosphatidylglycerol membrane lysis assessed as calcein leakage at 250 uM to 1 mM by spectrofluorometric analysis. Type of data set: physicochemical.
Data set [5] can be described thus: Destabilization of dimyristoyl phosphatidylethanolamine membrane. Type of data set: physicochemical.
In data set [6] the test system is Escherichia coli. Nature of the data set: Antimicrobial activity against Escherichia coli. Format: functional.
Data set [7] has as its system Staphylococcus aureus. Nature of the data set: Antimicrobial activity against Staphylococcus aureus. Type of data set: functional.
The nature of data set [8]: Induction of dimyristoyl phosphatidylglycerol membrane lysis assessed as calcein leakage at 1 mM by spectrofluorometric analysis relative to control. Type of data set: physicochemical. Particulars: 1000 µM.
Data set [9] is described as follows: Destabilization of dimyristoyl phosphatidylglycerol membrane. Type of data set: physicochemical.
Data set [10] relates to Escherichia coli. Nature of the data set: Antimicrobial activity against Escherichia coli up to 2 mM. Type of data set: functional, organism-based.
For data set [11], the system named is Staphylococcus aureus. Nature of the data set: Antimicrobial activity against Staphylococcus aureus up to 2 mM. Type of data set: functional, organism-based.

Turning to `CC(C)c1ccccc1N(C)C(=O)N(C)c1cccc(N(C)C(=O)N(C)c2cccc(N(C)C(=O)N(C)c3cccc(N(C)C(=O)N(C)c4cccc(N(C)C(=O)N(C)c5cccc(N(C)C(=O)N(C)c6cccc(N(C)C(=O)N(C)c7ccccc7C(C)C)c6)c5)c4)c3)c2)c1`, the Activity entry was “Dose-dependent effect” in data set [1]; “Not Active” in [2]; “Active” in data set [3]; “Active” in data set [4]; “Active” in data set [5]; 69% in [8]. Further, the MIC in the data set on Escherichia coli [6] and against Staphylococcus aureus [7] was 1000 µM (≈ 1300 µg/mL) in each case.

`CC(C)c1ccccc1N(C)C(=O)N(C)c1cccc(N(C)C(=O)N(C)c2cccc(N(C)C(=O)N(C)c3cccc(N(C)C(=O)N(C)c4ccccc4C(C)C)c3)c2)c1`: the Activity entry in data set [1] is given as “Dose-dependent effect”; in data set [2], “Not Active”; in data set [3] it was “Active”; in data set [4], “Active”; in data set [5], “Active”; in data set [8] it was 61%. Also, the MIC against Escherichia coli [6] and against Staphylococcus aureus [7] was 1000 µM (≈ 811 µg/mL) throughout.

Take `CC(C)c1ccccc1N(C)C(=O)N(C)c1ccccc1C(C)C`: the Activity result in [9] is on record as “Active”; in [1] it was “Dose-dependent effect”; in [2], “Not Active”; in data set [3], “Active”; in data set [4] it was “Active”; in data set [5], “Not Active”. Also, the result in the data set on Escherichia coli [10] and with Staphylococcus aureus [11] was inactive.
